From the NIST ThermoML archive (doi:10.1016/j.tca.2009.05.014)
Numbers after ± are expanded uncertainties.

Conditions: Crystal, Rate of evaporation

Q: With `CC(C)(C)C(=O)/C=C(\[O-])C(C)(C)C.CC(C)(C)C(=O)/C=C(\[O-])C(C)(C)C.[Cu+2]` [bis(2,2,6,6-tetramethyl-3,5-heptanedionato)copper(II)] as the compound, how does the “vapor or sublimation pressure” value (375 K) read?
A: 4e-05 ± 4e-06 kPa

Q: What about the “vapor or sublimation pressure” value (385 K) of the same compound?
A: 7.2e-05 ± 7e-06 kPa

Q: And the “vapor or sublimation pressure” value (395 K)?
A: 0.000151 ± 1.5e-05 kPa

Q: And the “vapor or sublimation pressure” value (404 K)?
A: 0.000343 ± 3.4e-05 kPa

Q: What about the “vapor or sublimation pressure” value (415 K) of the same compound?
A: 0.00072 ± 7.2e-05 kPa

Q: And the “vapor or sublimation pressure” value (425 K)?
A: 0.001456 ± 0.00015 kPa

Q: What about the “vapor or sublimation pressure” value (435 K) of the same compound?
A: 0.002373 ± 0.00024 kPa
